For assay [1], the target named is T1, HBV polymerase reverse transcriptase (HBV-RT) (Hepatitis B virus genotype D subtype ayw, UniProt P03156).
T1 construct: made in house; host or cells: E. coli
The experiment in a line: inhibitory activity against HBV polymerase in vitro (reverse transcriptase activity). The format is biochemical. To be noted: read-out: Inhibitory effect of HBV-RT; for inhibition at 0.1 µg/mL: 0.1 μg/ml; for inhibition at 1 µg/mL: 1 μg/ml. An excerpt:
Experiment 1: The inhibitory activity against HBV polymerase in vitro.
Recently, the inventors of the present invention have produced a recombinant HBV polymerase that is expressed from E.coli transformant, measured its enzyme activity and filed patent applications thereof [Korean Patent Application Nos. 94-3918, 96-33998 and 96-63255].
The inventions have established a method of measuring the reverse transcriptase activity of HBV polymerase in vitro. The fundamental principle is the same as the ELISA method, and after reacting the substrate with biotin- and DIG-modified nucleotide, a method of recognizing the polymerized substrate as anti-DIG antibody with peroxidase was used. […] and 20 μ of test compound were mixed and reacted at 14~30° C. for 18~24 hours. Then, the inhibitory effect of test compound against reverse trascriptase activity in the HBV polymerase was examined, compared with the results of control tests without the test compound.

The target of assay [2] is T2, HIV reverse transcriptase (HIV-RT) (Human immunodeficiency virus type 1 group M subtype B, UniProt P04585).
T2 construct: purchased Boehringer Mannheim
As to the kind of experiment: in vitro inhibition test against HIV reverse transcriptase. Format: biochemical, HIV (AIDS virus). To be noted: read-out: Inhibitory effect of HIV-RT; for inhibition at 0.1 µg/mL: 0.1 μg/ml; for inhibition at 1 µg/mL: 1 μg/ml. As for the experimental part: Experiment 3: The in vitro inhibition test against HIV reverse transcriptase
The inhibitory activity in vitro was measured using a non-radioactive reverse transcriptase assay Kit (Boehringer Mannheim).
At first, 20 μl(40 ng) HIV-RT was added to the wells coated with streptavidin and with the addition of 20 μl, reaction mixture containing template/primer hybrid poly(A)/oligo(dT)15 and DIG-(digoxigenin)-dUTP, biotin-dUTP and TTP, 20 μl test compound was added and reacted at 37° C. for 1 hour. The control without test compound was used for the comparison of related activity. Since DNA containing nucleotide labeled with digoxigenin and biotine was prepared by the action of HIV-RT, it was combined with streptavidin coated at the bottom of the wells. After the reaction was completed, remaining impurities were removed by washing each well with 20 μl buffer solution (pH 7.0) for 30 seconds 5 times and with the addition of 200 μl anti-DIG-POD antibody, the mixture was reacted at 37° C. for 1 hour. For the removal of remaining impurities again, the reacting solution was washed with a buffer solution and with the addition of 200μl ABTS™ each, a substrate of POD(peroxidase), the solution was reacted at room temperature for 30 minutes. The absorbance was read by ELISA reader at 405 nm for the assay of reverse transcriptase activity and its inhibition activity.

The target of assay [3] is T3, RNase H of HBV polymerase (HBV-RNase H) (Hepatitis B virus ayw/France/Tiollais/1979, UniProt P03156).
T3 construct: amylose/maltose step implies MBP fusion
T3 sequence (P03156 680-832): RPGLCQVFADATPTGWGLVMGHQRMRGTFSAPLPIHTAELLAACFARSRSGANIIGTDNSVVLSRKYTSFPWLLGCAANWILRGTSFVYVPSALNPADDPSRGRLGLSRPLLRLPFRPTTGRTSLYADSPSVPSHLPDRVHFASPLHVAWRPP
The experiment in a line: inhibitory effects against RNase H activity of HBV polymerase. Format: biochemical. To be noted: read-out: Inhibitory effect of HBV-RNase H; for inhibition at 0.1 µg/mL: 0.1 μg/ml; for inhibition at 1 µg/mL: 1 μg/ml. As for the experimental part: Experiment 2: The inhibitory effects against RNase H activity of HBV polymerase.
1) Expression of the RNase H domain derived from human HBV polymerase
E.coli NM 522 was transformed by the expression vector pMRH respectively and the transformants were cultured in LB medium at 37° C., overnight. These growing cultures were diluted 1:100, inoculated into a glucose rich medium and incubated until OD600 reached 0.5. Then IPTG (isopropylthiogalactoside) was added into the medium of which the fine concentration was 0.5 mM. The above growing cultures were incubated again at 20° C. for 16 hours and the RNase H domain was expressed.
The above cultured broth was centrifuged for 10 minutes at 3,000 rpm and the cell pellet was washed with 10 ml of TNE column buffer (10 mN Tris-Cl, pH 8.0, 200 mM NaCl, 1 mM EDTA), and resuspended in 10 ml of TNE column buffer. The cells were freezed and thawed 4 times repeatedly, and then disrupted by sonication for 10 seconds 3 times. The crude extract prepared in the above process was centrifuged for 30 minutes at 13,000 rpm, 4° C. and the supernatant was separated. The above process was repeated 2 times and then the supernatant passed the amylose resin. The resin was washed by using column buffer with 50 times of resin volume, and the RNase H domain was eluted by using buffer containing 10 mM maltose.
In addition, the RNase H domain produced from the expression vector pMRH was purified by using histidine tag affinity column, because RNase H has a histidine tag at the C-terminus. The resin (Ni-NTA, QIAGEN) used in the histidine tag affinity column was activated by using sonication buffer (50 mM sodium phosphate, pH 8.0, 300 mM sodium chloride) and 4~5 ml of the activated resin was charged in the glass tube whose diameter was about 1 cm. The protein sample obtained from above description passed the resin at the 0.1 ml/ min flow rate and the column was washed by using washing buffer with the 100~200 times volume of protein sample (50 mM sodium phosphate, pH 6.0, 300 mM sodium chloride, 10% glycerol). The recombinant protein was eluted by washing the column with concentration gradient of 0.01~0.5 M imidazole.
As a result, the active RNase H domain was separated from the histidine tag affinity column at 30 mM concentration of imidazole. The purified RNase H domain was mixed with 50% glycerol for storage at -20° C. after the removal of imidazole from it and employed fol the screening of HBV inhibitors.
2) Preparation of the substrate of the RNase H enzyme
In order to identify the RNase H activity, RNA/DNA complex which can be used as a substrate of the RNase H enzyme was prepared by performing in vitro transcription with […].
3) Screening of active inhibitors against RNase H
The RNase H activity was measured by using recombinant RNase H enzyme and radiolabled RNA/DNA hybrid. In order to measure the RNase H activity, 1 μg of RNase H enzyme and test compound were mixed with buffer solution containing 40 mM Tris-Cl (pH 8.0), 4 mM magnesium chloride, 40 mM potassium chloride and 2 mM DTT. The mixture was pretreated on ice for 10 minutes. After pretreatment is completed, RNA/DNA hybrid was added to incubate at 37° C. for 3 hours. After the reaction was stopped, 7.5 M ammonium acetate in a volume of 1/2 and ethanol in a 3-fold volume were added. The above reaction mixture was incubated at -20° C. for more than 2 hours and centrifuged for 15 minutes at 4° C., 13,000 rpm. The supernatant was obtained and the radioactive signal of supernatant was measured by scintillation counter.
As a control, water was added instead of test compound and the inhibitory activity was calculated to compare with the control, when the radioactivity intensity on each test compound, was obtained.

Each structure is given as a SMILES string.

T1 sequence (P03156 whole entry): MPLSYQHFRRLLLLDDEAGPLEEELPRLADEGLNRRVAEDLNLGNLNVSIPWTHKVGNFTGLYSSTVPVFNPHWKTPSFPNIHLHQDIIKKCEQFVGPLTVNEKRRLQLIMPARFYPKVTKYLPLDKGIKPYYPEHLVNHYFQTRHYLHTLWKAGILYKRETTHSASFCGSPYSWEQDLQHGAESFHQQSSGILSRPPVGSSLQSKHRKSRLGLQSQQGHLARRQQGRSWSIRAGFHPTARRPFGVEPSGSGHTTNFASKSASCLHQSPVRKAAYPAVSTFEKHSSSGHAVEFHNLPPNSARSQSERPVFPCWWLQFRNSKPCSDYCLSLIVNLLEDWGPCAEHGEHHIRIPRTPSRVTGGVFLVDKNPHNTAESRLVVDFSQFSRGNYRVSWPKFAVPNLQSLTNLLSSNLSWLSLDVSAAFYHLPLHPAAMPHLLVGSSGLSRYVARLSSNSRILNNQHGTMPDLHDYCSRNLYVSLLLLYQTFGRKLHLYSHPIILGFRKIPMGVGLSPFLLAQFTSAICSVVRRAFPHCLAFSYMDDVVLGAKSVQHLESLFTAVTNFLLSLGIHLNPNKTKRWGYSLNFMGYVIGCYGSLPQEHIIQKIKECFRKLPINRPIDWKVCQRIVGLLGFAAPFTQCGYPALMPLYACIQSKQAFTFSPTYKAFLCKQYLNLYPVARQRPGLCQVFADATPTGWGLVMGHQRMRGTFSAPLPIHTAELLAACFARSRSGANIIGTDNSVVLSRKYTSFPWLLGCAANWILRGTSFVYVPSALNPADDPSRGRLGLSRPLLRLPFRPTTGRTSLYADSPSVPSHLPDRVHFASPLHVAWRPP

In the case of `CC(C)Nc1cccnc1N1CCN(C(=O)c2ccc(C(=O)NCCO)cc2)CC1` [Compound No. 1, 1-[N-(2-Hydroxyethyl)carbamoyl]-4-[1-[3-(isopropylamino)-2-pyridyl]piperazin-4-yl-carbonyl]benzene], the inhibition at 0.1 µg/mL in assay [1] came to 53%; in assay [2] it was 41%; in assay [3], 11%. The values for the inhibition at 1 µg/mL in assay [1], in assay [2] and in assay [3] were 55%, 62% and 80%, respectively.
With `CC(C)Nc1cccnc1N1CCN(C(=O)c2ccc(C(=O)N(CCO)CCO)cc2)CC1` [Compound No. 12, 1-[N,N-Bis(2-hydroxyethyl)carbamoyl]-4-[1-[3-(isopropylamino)-2-pyridyl]piperazin-4-yl-carbonyl]benzene], the inhibition at 0.1 µg/mL in assay [1] amounted to 52%; in assay [2] it was 46%; in assay [3], 86%. The results for the inhibition at 1 µg/mL in assay [1], in assay [2] and in assay [3] were 63%, 52% and 91%, respectively.
Turning to `CC(C)Nc1cccnc1N1CCN(C(=O)c2ccc(C(=O)N3CCN(CCO)CC3)cc2)CC1` [Compound No. 26, 4-(2-Hydroxyethyl)-1-[4-[1-[3-(isopropylamino)-2-pyridyl]piperazin-4-yl-carbonyl]benzoyl]piperazine], the inhibition at 0.1 µg/mL in assay [1] stood at 32%; in assay [2], 45%; in assay [3], 66%. The inhibition at 1 µg/mL in assay [1] came out at 54%; in assay [2], 55%; in assay [3], 95%.
Take `CC(C)Nc1cccnc1N1CCN(C(=O)c2ccc(C(=O)NC(CO)CO)cc2)CC1` [Compound No. 52, 1-[N-[Bis(hydroxymethyl)methyl]carbamoyl]-4-[1-[3-(isopropylamino)-2-pyridyl]piperazin-4-yl-carbonyl]benzene]: the values for the inhibition at 0.1 µg/mL in assay [1], in assay [2] and in assay [3] were 52%, 57% and 41%, respectively. Moreover, the inhibition at 1 µg/mL came to 63% in assay [1], 61% in assay [2] and 58% in assay [3].
`CC(C)Nc1cccnc1N1CCN(C(=O)c2ccc(C(=O)N(C)CC3OCCO3)cc2)CC1` [Compound No. 71, 1-[N-[(1,3-Dioxolan-2-yl)methyl]-N-methylcarbamoyl]-4-[1-[3-(isopropylamino)-2-pyridyl]piperazin-4-yl-carbonyl]benzene]: the inhibition at 0.1 µg/mL came to 35% in assay [1], 68% in assay [2] and 56% in assay [3]. The inhibition at 1 µg/mL in assay [1] amounted to 51%; in assay [2], 70%; in assay [3] it was 62%.

These data come from patent US5922871A, “Terephthalamide derivatives” (Dongwha Pharmaceutical Ind. Co., Ltd., priority 1997, dated 1999).
